Measurements as given in article PMC9516332 (Frontiers in Oncology, 2022).
Where two headings read alike, the source gives them in different places.

Legend:
134 cancer cell lines = test: Cell viability assay (ATPlite, 72 hours), IC50 on cancer cell line panel
[1] = target: panel of 255 wild-type kinases (Homo sapiens, UniProt Q9Y6M4); test: Kinase panel profiling at 1 µmol/L (MSA or IMAP), percentage inhibition; assay type: biochemical; details: kinase CK1γ3; 1 µmol/L single concentration; read-out: %-inhibition at 1 µmol/L, CK1γ3
[2] = target: panel of 255 wild-type kinases (Homo sapiens, UniProt P29317); test: as above; assay type: biochemical; details: kinase EPHA2; 1 µmol/L single concentration; read-out: %-inhibition at 1 µmol/L, EPHA2

CCN1CCN(c2ccc(Nc3cc(N(C)C(=O)Nc4c(Cl)c(OC)cc(OC)c4Cl)ncn3)cc2)CC1 [infigratinib]
0.014 µM: IC50 (134 cancer cell lines; read-out: IC50 in cell proliferation assay, cell line RT-4 (FGFR3-TACC3))
4.47 µM: IC50 (134 cancer cell lines; Homo sapiens, SK-N-SH, read-out: IC50 in cell proliferation assay, cell line SK-N-SH (ALK p.F1174L))
0.135 µM: IC50 (134 cancer cell lines; Homo sapiens, T98G, read-out: IC50 in cell proliferation assay, cell line T98G)
0.039 µM: IC50 (134 cancer cell lines; Homo sapiens, SW780, read-out: IC50 in cell proliferation assay, cell line SW780 (FGFR3-BAIAP2L1))
3.21 µM: IC50 (134 cancer cell lines; Homo sapiens, SK-N-MC, read-out: IC50 in cell proliferation assay, cell line SK-N-MC)
2.15 µM: IC50 (134 cancer cell lines; read-out: IC50 in cell proliferation assay, cell line PA-1)
3.51 µM: IC50 (134 cancer cell lines; read-out: IC50 in cell proliferation assay, cell line DEL (NPM1-ALK))
2.99 µM: IC50 (134 cancer cell lines; read-out: IC50 in cell proliferation assay, JAR cell line)
4 µM: IC50 (134 cancer cell lines; Homo sapiens, Rec1, read-out: IC50 in cell proliferation assay, cell line REC-1)
0.318%: inhibition at 1 µM [2]
5.37 µM: IC50 (134 cancer cell lines; read-out: IC50 in cell proliferation assay, Hs 852.T cell line)
> 3.16 µM: IC50 (134 cancer cell lines; Homo sapiens, MeWo, read-out: IC50 in cell proliferation assay, MeWo cell line) | IC50 (134 cancer cell lines; Homo sapiens, NCI-H82, read-out: IC50 in cell proliferation assay, cell line NCI-H82) | IC50 (134 cancer cell lines; Homo sapiens, NCI-H460, read-out: IC50 in cell proliferation assay, NCI-H460 cell line) | IC50 (134 cancer cell lines; Homo sapiens, NCI-H661, read-out: IC50 in cell proliferation assay, NCI-H661 cell line) | IC50 (134 cancer cell lines; Homo sapiens, NCI-H1975, read-out: IC50 in cell proliferation assay, NCI-H1975 cell line (EGFR p.L858R + p.T790M)) | IC50 (134 cancer cell lines; Homo sapiens, OVCAR-3, read-out: IC50 in cell proliferation assay, cell line OVCAR-3) | IC50 (134 cancer cell lines; Homo sapiens, PFSK-1, read-out: IC50 in cell proliferation assay, cell line PFSK-1) | IC50 (134 cancer cell lines; Homo sapiens, RL95-2, read-out: IC50 in cell proliferation assay, cell line RL95-2 (EGFR p.A289V)) | IC50 (134 cancer cell lines; Homo sapiens, RPMI-7951, read-out: IC50 in cell proliferation assay, cell line RPMI-7951 (BRAF p.V600E)) | IC50 (134 cancer cell lines; Homo sapiens, RS4-11, read-out: IC50 in cell proliferation assay, cell line RS4;11) | IC50 (134 cancer cell lines; Homo sapiens, SHP77, read-out: IC50 in cell proliferation assay, cell line SHP-77) | IC50 (134 cancer cell lines; Homo sapiens, SK-BR-3, read-out: IC50 in cell proliferation assay, cell line SK-BR-3 (ERBB2 amplification)) | IC50 (134 cancer cell lines; Homo sapiens, SK-N-AS, read-out: IC50 in cell proliferation assay, cell line SK-N-AS) | IC50 (134 cancer cell lines; Homo sapiens, SK-N-FI, read-out: IC50 in cell proliferation assay, cell line SK-N-FI) | IC50 (134 cancer cell lines; Homo sapiens, SNU-5, read-out: IC50 in cell proliferation assay, cell line SNU-5 (MET amplification)) | IC50 (134 cancer cell lines; Homo sapiens, SNU-C2B, read-out: IC50 in cell proliferation assay, cell line SNU-C2B (EGFR p.R165Q)) | IC50 (134 cancer cell lines; Homo sapiens, SU-DHL-1, read-out: IC50 in cell proliferation assay, cell line SU-DHL-1 (NPM1-ALK)) | IC50 (134 cancer cell lines; Homo sapiens, SU-DHL-6, read-out: IC50 in cell proliferation assay, cell line SU-DHL-6) | IC50 (134 cancer cell lines; Homo sapiens, SUP-T1, read-out: IC50 in cell proliferation assay, cell line SUP-T1) | IC50 (134 cancer cell lines; Homo sapiens, SW48, read-out: IC50 in cell proliferation assay, cell line SW48 (EGFR p.G719S)) | IC50 (134 cancer cell lines; Homo sapiens, SW480, read-out: IC50 in cell proliferation assay, cell line SW480) | IC50 (134 cancer cell lines; Homo sapiens, SW626, read-out: IC50 in cell proliferation assay, cell line SW626) | IC50 (134 cancer cell lines; Homo sapiens, SW837, read-out: IC50 in cell proliferation assay, cell line SW837) | IC50 (134 cancer cell lines; Homo sapiens, SW872, read-out: IC50 in cell proliferation assay, cell line SW872 (BRAF p.V600E)) | IC50 (134 cancer cell lines; Homo sapiens, SW900, read-out: IC50 in cell proliferation assay, cell line SW900) | IC50 (134 cancer cell lines; Homo sapiens, SW948, read-out: IC50 in cell proliferation assay, cell line SW948) | IC50 (134 cancer cell lines; Homo sapiens, SW982, read-out: IC50 in cell proliferation assay, cell line SW982 (BRAF p.V600E)) | IC50 (134 cancer cell lines; Homo sapiens, SW-620, read-out: IC50 in cell proliferation assay, cell line SW620) | IC50 (134 cancer cell lines; Homo sapiens, TCC-SUP, read-out: IC50 in cell proliferation assay, cell line TCCSUP) | IC50 (134 cancer cell lines; Homo sapiens, THP-1, read-out: IC50 in cell proliferation assay, cell line THP-1) | IC50 (134 cancer cell lines; Homo sapiens, U2OS, read-out: IC50 in cell proliferation assay, cell line U2OS) | IC50 (134 cancer cell lines; Homo sapiens, U-87 MG, read-out: IC50 in cell proliferation assay, cell line U-87MG ATCC) | IC50 (134 cancer cell lines; Homo sapiens, U-118-MG, read-out: IC50 in cell proliferation assay, cell line U-118MG) | IC50 (134 cancer cell lines; Hs766T, read-out: IC50 in cell proliferation assay, Hs 766T cell line) | IC50 (134 cancer cell lines; read-out: IC50 in cell proliferation assay, 11-18 cell line (EGFR p.L858R)) | IC50 (134 cancer cell lines; read-out: IC50 in cell proliferation assay, cell line 5637) | IC50 (134 cancer cell lines; read-out: IC50 in cell proliferation assay, cell line A-388) | IC50 (134 cancer cell lines; read-out: IC50 in cell proliferation assay, cell line DB) | IC50 (134 cancer cell lines; read-out: IC50 in cell proliferation assay, cell line ES-2 (BRAF p.V600E)) | IC50 (134 cancer cell lines; read-out: IC50 in cell proliferation assay, cell line PC-3) | IC50 (134 cancer cell lines; read-out: IC50 in cell proliferation assay, cell line RD) | IC50 (134 cancer cell lines; read-out: IC50 in cell proliferation assay, cell line RKO (BRAF p.V600E)) | IC50 (134 cancer cell lines; read-out: IC50 in cell proliferation assay, cell line RL) | IC50 (134 cancer cell lines; read-out: IC50 in cell proliferation assay, cell line SR (NPM1-ALK)) | IC50 (134 cancer cell lines; read-out: IC50 in cell proliferation assay, cell line T24) | IC50 (134 cancer cell lines; read-out: IC50 in cell proliferation assay, cell line TT (RET p.C634W)) | IC50 (134 cancer cell lines; read-out: IC50 in cell proliferation assay, cell line VA-ES-BJ)
0.525 µM: IC50 (134 cancer cell lines; Rh30, read-out: IC50 in cell proliferation assay, cell line Rh30)
5.09 µM: IC50 (134 cancer cell lines; Homo sapiens, NCI-H1650, read-out: IC50 in cell proliferation assay, NCI-H1650 cell line (EGFR exon19del))
0.466 µM: IC50 (134 cancer cell lines; Homo sapiens, NCCIT, read-out: IC50 in cell proliferation assay, NCC-IT cell line)
-1.16%: inhibition at 1 µM [1]
4.38 µM: IC50 (134 cancer cell lines; Homo sapiens, NCI-H2228, read-out: IC50 in cell proliferation assay, NCI-H2228 cell line (EML4-ALK))
0.028 µM: IC50 (134 cancer cell lines; Homo sapiens, SNU-16, read-out: IC50 in cell proliferation assay, cell line SNU-16 (FGFR2 amplification))
0.625 µM: IC50 (134 cancer cell lines; Homo sapiens, UMUC3, read-out: IC50 in cell proliferation assay, cell line UM-UC-3)
0.02 µM: IC50 (134 cancer cell lines; Homo sapiens, NCI-H716, read-out: IC50 in cell proliferation assay, cell line NCI-H716 (FGFR2-COL14A1))
